The values below come from US11618747B2, “LXR modulators with bicyclic core moiety” (OrsoBio, Inc., priority 2018, dated 2023).

Data set [1] in a line: Pharmacokinetics in mice after single oral dosing (blood/plasma and liver exposure). Conditions: 20 mg/kg single oral dose. Format: in vivo, mice (C57/bl6/J). Here is the method:
The pharmacokinetics of the compounds was assessed in mice after single dosing and oral administrations. Blood/plasma and liver exposure was measured via LC-MS.
The study design was as follows:
Animals: C57/bl6/J (Janvier) males
Diet: standard rodent chow
Animal handling: animals were withdrawn from food at least 12 h before administration
Design: single dose oral administration, n=3 animals per group
Sacrifice: at stated time point (4, 12 or 24 h) after administration
Bioanalytics: LC-MS of liver and blood/plasma samples

A further data set deals with T1, full length (FL) LXRα (Homo sapiens, UniProt Q13133).
T1 construct: the full length (FL) proteins of LXRα (amino acids 1-447); NP005684; expressed in transfected cells; host or cells: HEK293
T1 sequence (Q13133 1-447): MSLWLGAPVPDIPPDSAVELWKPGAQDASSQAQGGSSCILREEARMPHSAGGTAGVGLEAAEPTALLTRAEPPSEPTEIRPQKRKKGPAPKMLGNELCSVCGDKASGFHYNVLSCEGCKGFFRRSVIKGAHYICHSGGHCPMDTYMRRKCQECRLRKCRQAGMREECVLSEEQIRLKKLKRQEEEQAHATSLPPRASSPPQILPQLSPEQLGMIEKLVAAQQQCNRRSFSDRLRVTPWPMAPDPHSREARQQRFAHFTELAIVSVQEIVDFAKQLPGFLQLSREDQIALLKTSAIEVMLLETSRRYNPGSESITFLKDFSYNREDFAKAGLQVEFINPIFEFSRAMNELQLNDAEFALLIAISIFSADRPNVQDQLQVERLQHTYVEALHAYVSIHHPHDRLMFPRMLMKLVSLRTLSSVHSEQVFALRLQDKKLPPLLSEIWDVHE
Put plainly: LXR Gal4 reporter transient transfection assay (FL-M2H Gal4α). Format: cell-based. The following applies: HEK293 cells, full length LXRα; read-out: FL-M2H Gal4α (EC50 range). A digest of the protocol: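 Luminescence readout: Firefly luciferase driven by GAL4 response elements reports LXR–cofactor interaction, normalised against cotransfected Renilla luciferase. The system used HEK293 cells expressing LXR full length or ligand-binding domain fused to the NFkB activation domain, with SRC1 or NCoR domains on GAL4 DBD; compound exposure was 16 h.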

Data set [2] is described as follows: Short term HFD mouse model: plasma and liver exposure. The following applies: HFD mice, 4 h after last dose. Format: in vivo, mice (C57BL/6J). The protocol: Short Term HFD Mouse Model:
The in vivo transcriptional regulation of several LXR target genes by LXR modulators was assessed in mice.
For this, C57BL/6J were purchased from Elevage Janvier (Rennes, France) at the age of 8 weeks. After an acclimation period of two weeks, animals were preferred on a high fat diet (HFD) (Ssniff Spezialdiäten GmbH, Germany, Surwit EF D12330 mod, Cat. No. E15771-34), with 60 kcal % from fat plus 1% (w/w) extra cholesterol (Sigma-Aldrich, St. Louis, Mo.) for 5 days. Animals were maintained on this diet during treatment with LXR modulators. The test compounds were formulated in 0.5% hydroxypropylmethylcellulose (HPMC) and administered in three doses (from 1.5 to 20 mg/kg each) by oral gavage according to the following schedule: on day one, animals received treatment in the morning and the evening (ca. 17:00), on day two animals received the final treatment in the morning after a 4 h fast and were sacrificed 4 h thereafter. Animal work was conducted according to the national guidelines for animal care in Germany.
Upon termination, liver was collected, dipped in ice cold PBS for 30 seconds and cut into appropriate pieces. Pieces were snap frozen in liquid nitrogen and stored at −80° C. For the clinical chemistry analysis from plasma, alanine aminotransferase (ALT, IU/mL), cholesterol (CHOL, mg/dL) and triglycerides (TG, mg/dL) were determined using a fully-automated bench top analyzer (Respons®910, DiaSys Greiner GmbH, Flacht, Germany) with system kits provided by the manufacturer.

In general, EC50 refers to the concentration giving half of the maximal effect.

For the compound `Cc1ccc(S(=O)(=O)n2c(-c3cccc(-c4ccc(C(=O)O)cc4)c3)c(-c3ccsc3C#N)c3cc(F)ccc32)cc1C` [23/2], in data set [1] (time point 4 h), the blood/plasma exposure result is “B (B: 300 nM to ≤1 μM)”, the liver exposure result was “D (D: >3 μM)” and the liver/blood ratio result is recorded as “C (C: 10 to ≤30)”. In addition, at full length (FL) LXRα, the EC50 is less than 100 nM. In addition, in data set [2] (three oral doses of 20 mg/kg), the “liver exposure 4 h” value is reported as “A (<300 nM)”, the “liver/plasma ratio 4 h” value is reported as “A (<5)” and the “plasma exposure 4 h” value is recorded as “C (C: 100 nM to <300 nM)”.

Regarding `Cc1ccc(S(=O)(=O)n2c(-c3cccc(-c4ccc(C(=O)O)cc4)c3)c(-c3ccsc3C#N)c3cc(F)ccc32)cc1` [5/3], in data set [1] (time point 4 h), the blood/plasma exposure result is “C (C: 100 nM to <300 nM)”, the liver exposure entry is “C (C: 1 μM to ≤3 μM)” and the liver/blood ratio entry was “C (C: 10 to ≤30)”. Moreover, in data set [2] (three oral doses of 20 mg/kg), the “liver exposure 4 h” value was “C (1 μM to ≤10 μM)”, the “liver/plasma ratio 4 h” value is on record as “B (5 to ≤30)” and the “plasma exposure 4 h” value is on record as “D (D: <100 nM)”.

Turning to `O=C(O)c1ccc(-c2cccc(-c3c(-c4ncccc4C(F)(F)F)c4cc(F)ccc4n3S(=O)(=O)c3ccc(C(F)F)cc3)c2)c(Cl)c1` [11/23], the EC50 at full length (FL) LXRα was less than 100 nM. Also, in data set [2] (three oral doses of 20 mg/kg), the “liver exposure 4 h” value was “C (1 μM to ≤10 μM)”, the “liver/plasma ratio 4 h” value is recorded as “B (5 to ≤30)” and the “plasma exposure 4 h” value is on record as “C (C: 100 nM to <300 nM)”.

On to `COc1c(C(=O)O)ccc(-c2cccc(-c3c(-c4ccccc4C#N)c4cc(F)ccc4n3S(=O)(=O)c3ccc(C(F)F)cc3)c2)c1Cl` [11/27], for which, on full length (FL) LXRα, the EC50 is less than 100 nM. Besides, in data set [2] (three oral doses of 20 mg/kg), the “liver exposure 4 h” value is reported as “C (1 μM to ≤10 μM)”, the “liver/plasma ratio 4 h” value was “C (30 to ≤100)” and the “plasma exposure 4 h” value is “D (D: <100 nM)”.

On to `Cc1ccc(S(=O)(=O)n2c(-c3cccc(C45CCC(C(=O)O)(CC4)CC5)c3)c(-c3ccsc3C#N)c3cc(F)ccc32)cc1` [3/64], for which, at full length (FL) LXRα, the EC50 was less than 100 nM. In addition, in data set [2] (three oral doses of 20 mg/kg), the “liver exposure 4 h” value is given as “D (>10 μM)”, the “liver/plasma ratio 4 h” value is “D (>100)” and the “plasma exposure 4 h” value is recorded as “C (C: 100 nM to <300 nM)”.

On to `N#Cc1cccc(C#N)c1-c1c(-c2cccc(-c3ccc(C(=O)O)cc3Cl)c2)n(S(=O)(=O)c2ccc(C(F)F)cc2)c2ccc(F)cc12` [11/12], for which the EC50 on full length (FL) LXRα was less than 100 nM. In data set [2] (three oral doses of 20 mg/kg), the “liver exposure 4 h” value is on record as “C (1 μM to ≤10 μM)”, the “liver/plasma ratio 4 h” value is “C (30 to ≤100)” and the “plasma exposure 4 h” value is reported as “D (D: <100 nM)”.

Regarding `N#Cc1cccc(C#N)c1-c1c(-c2cccc(-c3c(F)cc(CC(=O)O)cc3F)c2)n(S(=O)(=O)c2ccc(C(F)F)cc2)c2ccc(F)cc12` [3/73], the concentration giving a half-maximal response (EC50) on full length (FL) LXRα is less than 100 nM. In data set [2] (three oral doses of 10 mg/kg), the “liver exposure 4 h” value was “B (300 nM to ≤1 μM)”, the “liver/plasma ratio 4 h” value is “C (30 to ≤100)” and the “plasma exposure 4 h” value is reported as “D (D: <100 nM)”.

As for `N#Cc1cccc(C#N)c1-c1c(-c2cccc(-c3c(F)cc(C(=O)O)cc3F)c2)n(S(=O)(=O)c2ccc(C(F)F)cc2)c2ccc(F)cc12` [11/53], at full length (FL) LXRα, the EC50 was less than 100 nM. Further, in data set [2] (three oral doses of 10 mg/kg), the “liver exposure 4 h” value is recorded as “C (1 μM to ≤10 μM)”, the “liver/plasma ratio 4 h” value is given as “C (30 to ≤100)” and the “plasma exposure 4 h” value is on record as “D (D: <100 nM)”.

With `CN(CCS(=O)(=O)O)C(=O)c1ccc(-c2cccc(-c3c(-c4c(C#N)cccc4C#N)c4cc(F)ccc4n3S(=O)(=O)c3ccc(C(F)F)cc3)c2)c(Cl)c1` [10/2], the concentration for a half-maximal effect (EC50) at full length (FL) LXRα is less than 100 nM. Also, in data set [2] (three oral doses of 10 mg/kg), the “liver exposure 4 h” value is recorded as “D (>10 μM)”, the “liver/plasma ratio 4 h” value is on record as “B (5 to ≤30)” and the “plasma exposure 4 h” value was “D (D: <100 nM)”.

As to `N#Cc1cccc(C#N)c1-c1c(-c2cccc(-c3ccc(C(=O)O)cc3Cl)c2)n(S(=O)(=O)c2ccc(C(F)(F)F)nc2)c2ccc(F)cc12` [11/37], at full length (FL) LXRα, the EC50 was less than 100 nM. In addition, in data set [2] (three oral doses of 10 mg/kg), the “liver exposure 4 h” value is recorded as “C (1 μM to ≤10 μM)”, the “liver/plasma ratio 4 h” value is listed as “C (30 to ≤100)” and the “plasma exposure 4 h” value is listed as “D (D: <100 nM)”.

For the compound `N#Cc1cccc(C#N)c1-c1c(-c2cccc(-c3ccc(C(=O)O)cc3Cl)c2)n(S(=O)(=O)C2CCC(F)(F)CC2)c2ccc(F)cc12` [11/63], the EC50 on full length (FL) LXRα is less than 100 nM. In addition, in data set [2] (three oral doses of 10 mg/kg), the “liver exposure 4 h” value is given as “C (1 μM to ≤10 μM)”, the “liver/plasma ratio 4 h” value is “B (5 to ≤30)” and the “plasma exposure 4 h” value is reported as “D (D: <100 nM)”.

In the case of `N#Cc1ccccc1-c1c(-c2cccc(-c3ccc(C(=O)O)cc3Cl)c2)n(S(=O)(=O)c2ccc(C(F)F)cc2)c2cnccc12` [11/49], the EC50 on full length (FL) LXRα was less than 100 nM. In data set [2] (three oral doses of 20 mg/kg), the “liver exposure 4 h” value was “C (1 μM to ≤10 μM)”, the “liver/plasma ratio 4 h” value was “D (>100)” and the “plasma exposure 4 h” value is given as “D (D: <100 nM)”.

For `Cc1ccc(S(=O)(=O)n2c(-c3cccc(-c4ccc(C(=O)O)cc4Cl)c3)c(-c3ccsc3C#N)c3cc(F)ccc32)cc1` [3/48], in data set [1] (time point 12 h), the “blood/plasma exposure (below LLOQ, LLOQ given)” value is on record as “(1.2 ng/mL)” and the liver exposure result is “A (A: <300 nM)”. In addition, at full length (FL) LXRα, the concentration giving a half-maximal response (EC50) is less than 100 nM. For the same compound, in data set [2] (three oral doses of 20 mg/kg), the “liver exposure 4 h” value was “C (1 μM to ≤10 μM)”, the “liver/plasma ratio 4 h” value is recorded as “C (30 to ≤100)” and the “plasma exposure 4 h” value was “D (D: <100 nM)”.

For `N#Cc1cccnc1-c1c(-c2cccc(-c3ccc(C(=O)O)cc3Cl)c2)n(S(=O)(=O)c2ccc(C(F)F)cc2)c2ccc(F)cc12` [11/26], the EC50 on full length (FL) LXRα is less than 100 nM. For the same compound, in data set [2] (three oral doses of 10 mg/kg), the “liver exposure 4 h” value is recorded as “C (1 μM to ≤10 μM)”, the “liver/plasma ratio 4 h” value is recorded as “C (30 to ≤100)” and the “plasma exposure 4 h” value is reported as “C (C: 100 nM to <300 nM)”.

Consider `N#Cc1cccc(C#N)c1-c1c(-c2cccc(-c3ccc(C(=O)NCC(=O)O)cc3Cl)c2)n(S(=O)(=O)c2ccc(C(F)F)cc2)c2ccc(F)cc12` [21/3], for which the EC50 on full length (FL) LXRα was less than 100 nM. Further, in data set [2] (three oral doses of 10 mg/kg), the “liver exposure 4 h” value is on record as “C (1 μM to ≤10 μM)”, the “liver/plasma ratio 4 h” value is listed as “D (>100)” and the “plasma exposure 4 h” value is “D (D: <100 nM)”.

Turning to `O=C(O)c1ccc(-c2cccc(-c3c(-c4ccccc4C4COC4)c4cc(F)ccc4n3S(=O)(=O)c3ccc(C(F)F)cc3)c2)c(Cl)c1` [3/59], the EC50 on full length (FL) LXRα was less than 100 nM. Moreover, in data set [2] (three oral doses of 20 mg/kg), the “liver exposure 4 h” value was “C (1 μM to ≤10 μM)”, the “liver/plasma ratio 4 h” value is reported as “B (5 to ≤30)” and the “plasma exposure 4 h” value is on record as “C (C: 100 nM to <300 nM)”.
